According to article PMC11694611, “α‐Triazolylboronic Acids: A Novel Scaffold to Target FLT3 in AML” (Chemmedchem, 2024):
Where two headings read alike, the source gives them in different places.

Experiments:
MV-4-11 cells (FLT3-ITD) = experiment: Cell viability by MTS assay, MV-4-11 cells; assay type: cell-based; settings: Homo sapiens, MV4-11, read-out: MV-4-11 (IC50, mean±SEM)
Description: Cellular assays were carried out on MV‐4‐11 cells, driven by the FLT3‐ITD mutation.
(§1) The purified enzyme was employed in an ELISA‐based kinase assay with 300 μM ATP and a Tyr‐phosphorylatable substrate peptide, using an anti‐phosphotyrosine antibody for detection (PY20; Santa Cruz Biotech). Cell viability was determined by MTS assay using the CellTiter 96® AQueous One Solution Cell Proliferation Assay kit (Promega) according to manufacturer's instructions. Dose‐response curves were calculated by non‐linear regression (log[inhibitor] vs normalized response) using GraphPad Prism software.

[1] = biological target: T1, recombinant His-tagged FLT3 kinase domain (aa 569–992) (Homo sapiens, UniProt P36888); experiment: ELISA-based in vitro FLT3 kinase assay; assay type: biochemical; settings: recombinant FLT3, 300 μM ATP
T1 construct: FLT3 kinase domain (aa 569–992); His; made in house; host or cells: Sf9 cells
T1 sequence (P36888 569-992): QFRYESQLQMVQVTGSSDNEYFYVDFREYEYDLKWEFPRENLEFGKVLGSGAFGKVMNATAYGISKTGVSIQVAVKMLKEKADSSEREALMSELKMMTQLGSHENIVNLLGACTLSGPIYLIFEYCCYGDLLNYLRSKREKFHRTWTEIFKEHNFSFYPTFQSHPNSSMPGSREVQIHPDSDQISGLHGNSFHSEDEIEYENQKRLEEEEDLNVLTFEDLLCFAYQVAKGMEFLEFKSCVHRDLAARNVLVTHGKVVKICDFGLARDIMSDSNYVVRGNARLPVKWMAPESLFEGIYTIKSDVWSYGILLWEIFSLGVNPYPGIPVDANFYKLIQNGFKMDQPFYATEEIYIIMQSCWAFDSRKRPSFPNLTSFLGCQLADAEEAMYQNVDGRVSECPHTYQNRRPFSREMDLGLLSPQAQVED
Description: as §1, with “In vitro kinase assays and cell viability assays were performed as described (Mologni et al., 2022).[50] Briefly, recombinant His‐tagged FLT3 kinase domain (aa 569–992) was expressed in Sf9 cells and purified by nickel ion affinity chromatography. The” for “The”

MOLM-14 cells (FLT3-ITD) = experiment: Cell viability by MTS assay, MOLM-14 cells; assay type: cell-based; settings: Homo sapiens, read-out: MOLM-14 (IC50, mean±SEM)
[2] = tested on: FLT3-wild type HL60 cells; experiment: Cytotoxicity by MTS assay, control cell line HL60; assay type: cell-based; settings: for IC50: Homo sapiens, HL-60, read-out: HL60 (IC50, mean±SEM)
Description: Compounds 4 a, 4 d, 4 e, 4 g and 4 q were among the best inhibitors in enzymatic assays and confirmed their activity also in cellular tests on FLT3‐driven MV‐4‐11 and on MOLM‐14 cell lines. To confirm their cellular mechanism of action, we assayed their cytotoxicity against FLT3‐wild type HL60 cells.
as §1, with “In vitro kinase assays and cell viability assays were performed as described (Mologni et al., 2022).[50] Briefly, recombinant His‐tagged FLT3 kinase domain (aa 569–992) was expressed in Sf9 cells and purified by nickel ion affinity chromatography. The” for “The”

[3] = cited from earlier work
[4] = Table 2, FLT3-ITD cell line, MTS viability
[5] = Table 2, read-out: FLT3 Kinase (IC50, mean±SEM)
[6] = Table 1, read-out: FLT3 Kinase Activity (IC50, mean±SEM)
[7] = Table 3, FLT3-wild type control cell line
[8] = Table 4, control analogues lacking boronic group

IC50 (MV-4-11 cells (FLT3-ITD); [4])	IC50 [1, 5]	IC50 [1, 6]	Structure (SMILES)	also measured
> 100 µM	5.8 ± 0.9 µM	–	O=S(=O)(CC(F)(F)F)NCc1cn(CB(O)O)nn1 [4 k]	–
–	–	> 100 µM	O=C(CSc1ccncc1)NCB(O)O [1 f]	–
> 100 µM	42 ± 5 µM	–	CS(=O)(=O)NCc1cn(CB(O)O)nn1 [4 p]	–
> 100 µM	25 ± 5 µM	–	O=S(=O)(NCc1cn(CB(O)O)nn1)c1cccs1 [4 l]	–
–	–	> 100 µM	CC(=O)NC(Cn1cc(-c2ccccc2)nn1)B(O)O (stereo not shown) [2 d]	–
1.4 ± 0.3 µM	> 100 µM	–	O=C(OCc1cn(CB(O)O)nn1)c1ccccc1 [4 w]	IC50 (MOLM-14 cells (FLT3-ITD); [4]): 0.35 ± 0.01 µM; FLT3 Kinase (IC50, mean±SEM) ([1]; Table 2): do not inhibit FLT3
> 100 µM	–	> 100 µM	O=C(O)c1cccc(-c2cn(CB(O)O)nn2)c1 [4 c]	–
> 100 µM	> 100 µM	–	OB(O)Cn1cc(-c2cnccn2)nn1 [4 h]	–
–	–	> 100 µM	Cc1onc(-c2ccccc2Cl)c1C(=O)NCB(O)O [1 c]	–
> 100 µM	65 ± 11 µM	–	COC(=O)c1cccc(CS(=O)(=O)NCc2cn(CB(O)O)nn2)c1 [4 o]	–
11 ± 1 µM	–	25 ± 2 µM	Cc1cccc(-c2cn(CB(O)O)nn2)c1 [4 d]	IC50 [2, 7]: 32 ± 4 µM; HL60 (IC50, mean±SEM) [2, 7]: moderate inhibition of HL60; IC50 (MOLM-14 cells (FLT3-ITD); [4]): 3 ± 0.5 µM
14 ± 0.2 µM	–	18 ± 1 µM	Cc1ccc(S(=O)(=O)Nc2cccc(-c3cn(CB(O)O)nn3)c2)cc1 [4 a]	IC50 [2, 7]: > 100 µM; IC50 (MOLM-14 cells (FLT3-ITD); [4]): 5.8 ± 0.7 µM
> 100 µM	> 100 µM	–	COC(=O)c1ccc(CS(=O)(=O)NCc2cn(CB(O)O)nn2)cc1 [4 m]	–
–	–	> 100 µM	O=C(Nc1ccccc1)NC(Cc1cccc(C(=O)O)c1)B(O)O (stereo not shown) [1 a]	–
–	–	> 100 µM	O=S(=O)(Cc1ccccc1)NCB(O)O [3 a]	–
–	–	> 100 µM	O=C(Cc1ccc(-c2nn[nH]n2)cc1)NCB(O)O [1 b]	–
–	–	> 100 µM	CC(NS(=O)(=O)Cc1ccccc1)B(O)O (stereo not shown) [3 c]	–
100 µM	76 ± 13 µM	–	OB(O)Cn1cc(-c2cccs2)nn1 [4 j]	IC50 (MOLM-14 cells (FLT3-ITD); [4]): 11 ± 2 µM
–	–	–	Nc1ccc(-c2cn(CC(=O)O)nn2)cc1 [5 e, 2‐(4‐(4‐aminophenyl)‐1H‐1,2,3‐triazol‐1‐yl)acetic acid]	IC50 (MV-4-11 cells (FLT3-ITD); [8]): > 100 µM; IC50 [2, 8]: > 100 µM; IC50 (MOLM-14 cells (FLT3-ITD); [8]): > 100 µM
1.1 ± 0.1 µM	> 100 µM	–	OB(O)Cn1cc(COc2ccccc2)nn1 [4 r]	IC50 (MOLM-14 cells (FLT3-ITD); [4]): 0.16 ± 0.01 µM; FLT3 Kinase (IC50, mean±SEM) ([1]; Table 2): do not inhibit FLT3

IC50 (MV-4-11 cells (FLT3-ITD); [4])	IC50 [1, 5]	IC50 [1, 6]	Structure (SMILES)	also measured
–	–	> 100 µM	O=C(Cc1cccs1)NC(B(O)O)c1ccccc1 (stereo not shown) [1 d]	–
14 ± 3 µM	–	6.7 ± 1.7 µM	Nc1cccc(-c2cn(CB(O)O)nn2)c1 [4 e]	IC50 [2, 7]: > 100 µM; IC50 (MOLM-14 cells (FLT3-ITD); [4]): 11 ± 1 µM
–	–	> 100 µM	O=C(NCB(O)O)c1ccc(-c2nnn[nH]2)cc1 [1 e]	–
–	–	> 100 µM	O=C(Cc1ccc(O)c(O)c1)NCB(O)O [1 g]	–
–	–	> 100 µM	CC(=O)NC(Cn1cc(C(C)(C)O)nn1)B(O)O (stereo not shown) [2 e]	–
> 100 µM	> 100 µM	–	OB(O)Cn1cc(-c2cccnc2)nn1 [4 i]	–
–	–	> 100 µM	NC(=O)c1cn(CC(NC(=O)Cc2cccs2)B(O)O)nn1 (stereo not shown) [2 b]	–
–	–	> 100 µM	Nc1nnc(SCC(=O)NC(Cn2cc(C(=O)O)nn2)B(O)O)s1 (stereo not shown) [2 c]	–
7.6 ± 3.9 µM	> 100 µM	–	OB(O)Cn1cc(CNc2ccccc2)nn1 [4 u]	IC50 (MOLM-14 cells (FLT3-ITD); [4]): 8.7 ± 1.4 µM; FLT3 Kinase (IC50, mean±SEM) ([1]; Table 2): lose enzymatic activity
> 100 µM	–	> 100 µM	NC(=O)c1cccc(-c2cn(CB(O)O)nn2)c1 [4 b]	–
> 100 µM	3.2 ± 0.4 µM	–	O=C(NCc1cn(CB(O)O)nn1)c1ccccc1 [4 t]	–
–	–	–	CCCCn1cc(-c2ccc(N)cc2)nn1 [6 e, 4‐(1‐butyl‐1H‐1,2,3‐triazol‐4‐yl)aniline]	IC50 (MV-4-11 cells (FLT3-ITD); [8]): > 100 µM; IC50 [2, 8]: > 100 µM; IC50 (MOLM-14 cells (FLT3-ITD); [8]): > 100 µM
10 ± 1 µM	18 ± 3 µM	–	Cc1ccc(S(=O)(=O)Nc2cccc(OCc3cn(CB(O)O)nn3)c2)cc1 [4 q]	IC50 [2, 7]: > 100 µM; IC50 (MOLM-14 cells (FLT3-ITD); [4]): 4.3 ± 0.5 µM
> 100 µM	> 100 µM	–	O=C(NCc1cn(CB(O)O)nn1)C(F)(F)F [4 v]	FLT3 Kinase (IC50, mean±SEM) ([1]; Table 2): lose enzymatic activity
–	–	–	[Cl-].[Na+] [NaCl]	LD50 [3]: 3000 mg/kg
2.7 ± 0.9 µM	–	18 ± 5 µM	OB(O)Cn1cc(-c2cccc(Cl)c2)nn1 [4 g]	IC50 [2, 7]: 15 ± 1 µM; HL60 (IC50, mean±SEM) [2, 7]: moderate inhibition of HL60; IC50 (MOLM-14 cells (FLT3-ITD); [4]): 0.68 ± 0.08 µM
> 100 µM	> 100 µM	–	O=C(O)c1cccc(CS(=O)(=O)NCc2cn(CB(O)O)nn2)c1 [4 n]	–
> 100 µM	–	> 100 µM	NS(=O)(=O)c1cccc(-c2cn(CB(O)O)nn2)c1 [4 f]	–
–	–	> 100 µM	Nc1cccc(-c2cn(CC(NC(=O)Cc3ccccc3)B(O)O)nn2)c1 (stereo not shown) [2 a]	–
–	–	> 100 µM	CC(C)C(NS(=O)(=O)Cc1ccccc1)B(O)O (stereo not shown) [3 b]	–

Structure (SMILES)	IC50 (MV-4-11 cells (FLT3-ITD); [4])	IC50 [1, 5]	IC50 [1, 6]	also measured
Cc1ccc(C(=O)Nc2ccc(CN3CCN(C)CC3)c(C(F)(F)F)c2)cc1C#Cc1cnc2cccnn12 [ponatinib, reference compound]	0.007 ± 0.002 µM	–	–	IC50 (MOLM-14 cells (FLT3-ITD); [4]): 0.001 ± 0.0001 µM
